Test results: PubChem BioAssay (NCI)
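Five concentrations, 48 hours, 96-well plates. GI50 is the concentration that inhibits growth by half. TGI: total growth inhibition.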

Assays:
Assay in all cases: DTP human tumour cell line panel, 48 h
BT-549 breast = system: BT-549 breast
COLO 205 colon = system: COLO 205 colon
HCT-116 colon = system: HCT-116 colon
HOP-62 NSCLC = system: HOP-62 NSCLC
HS 578T breast = system: HS 578T breast
NCI-H226 lung = system: NCI-H226 lung
OVCAR-3 ovarian = system: OVCAR-3 ovarian
OVCAR-8 ovarian = system: OVCAR-8 ovarian
SK-OV-3 ovarian = system: SK-OV-3 ovarian
UO-31 renal = system: UO-31 renal

Compound	GI50 (BT-549 breast) [µM]	TGI (BT-549 breast) [µM]	GI50 (COLO 205 colon) [µM]	TGI (COLO 205 colon) [µM]	GI50 (HCT-116 colon) [µM]	TGI (HCT-116 colon) [µM]	GI50 (HOP-62 NSCLC) [µM]	TGI (HOP-62 NSCLC) [µM]	GI50 (HS 578T breast) [µM]	TGI (HS 578T breast) [µM]	GI50 (NCI-H226 lung) [µM]	TGI (NCI-H226 lung) [µM]	GI50 (OVCAR-3 ovarian) [µM]	GI50 (OVCAR-8 ovarian) [µM]	TGI (OVCAR-8 ovarian) [µM]	GI50 (SK-OV-3 ovarian) [µM]	TGI (SK-OV-3 ovarian) [µM]	GI50 (UO-31 renal) [µM]	TGI (UO-31 renal) [µM]	TGI (OVCAR-3 ovarian) [µM]
CC(=O)O[C@H](C[C@H](C(C)C)N(C)C(=O)[C@@H](NC(=O)[C@H]1CCCCN1C)C(C)C)c1nc(C(=O)N[C@@H](Cc2ccccc2)C[C@H](C)C(=O)O)c(CCOCc2ccccc2)s1	< 0.001	0.00816	< 0.001	< 0.001	< 0.001	0.176	< 0.001	> 10	< 0.001	> 10	< 0.001	0.00313	< 0.001	< 0.001	> 10	< 0.001	> 10	0.00486	> 10	
CCCCC1(CN2CCOCC2)S/C(=N/c2nc(CC(=O)OCC)cs2)NC1=O (stereo not drawn)	41.8	> 100	30.1	> 100	22	63.1	44.7	> 100	35.8	> 100	38.6	> 100	21.2	33.9	> 100	25.9	> 100	33	> 100	67.7
N#CC(=NCCO)C1=C(O)c2ccccc2C1=O		> 100		> 100		> 100		> 100		> 100		> 100			> 100		> 100		> 100	> 100
Cc1cn2c(/C=C3\C(=O)N(C)c4ccc(O)cc43)c(C)nc2s1	7.57	> 100	4.29	27.5	4.04	> 100	18.2	> 100	5.64	40.8	52.1	> 100	2.65	11.3	> 100	7.52	43.2	9.03	> 100	17
CCOC(=O)CNC(=O)c1ccccc1Nc1ccnc(C(F)(F)F)c1	42	> 100	17.8	> 67.2	30.5	> 69.8	39.6	> 69.6	45.5	> 100	> 100	> 100	20.2	> 50.8	> 82.8	> 59.5	> 100	24.4	> 59.5	56.9
COCCOc1cnc2ccn([C@H](C)c3nnc4c(F)cc(-c5cnn(C)c5)cn34)c(=O)c2c1	> 100	> 100	> 100	> 100	> 100	> 100	> 100	> 100	82.7	> 100	> 100	> 100	> 100	> 100	> 100	> 100	> 100	70.6	> 100	> 100
O=C(Nc1ccc(Br)cc1)c1ccc(Cl)c(Cl)c1	2.74	> 29.8	1.81	3.7	2.72	8.07	3.86	> 52.3	3.8	> 100	2.86	> 100	2.48	4.2	> 100	3.17	> 100	2.31	> 100	7.18
C=C1C(=O)O[C@H]2[C@H]1CC/C(COC(=O)c1ccc(Cl)nc1)=C\CC[C@@]1(C)O[C@@H]21	1.95	6.71	1.74	3.96	1.45	2.84	11	26.3	4.56	36.2	2.66	6.78	1.03	3.26	12.7	14.8	28.5	1.37	2.96	2.32
Oc1cn(-c2ccc(Cl)cc2)nc1-c1n[nH]c(=S)n1C1CCCCC1	9.51	> 100	64.8	> 100	0.612	39.8	1.67	> 100	0.28		59.8	> 100	< 0.0456	0.46	16.8	0.451	> 44.5	17	> 100	0.424
